Here are results for 18 molecules from patent US12577206B2 (BRISTOL-MYERS SQUIBB COMPANY, priority 2020, dated 2026).

One may read the EC50 as the concentration needed to bring the measured effect to its halfway point.

The first assay has as its target T1, human FPR2 (Homo sapiens, UniProt P25090).
T1 sequence (P25090 1-351): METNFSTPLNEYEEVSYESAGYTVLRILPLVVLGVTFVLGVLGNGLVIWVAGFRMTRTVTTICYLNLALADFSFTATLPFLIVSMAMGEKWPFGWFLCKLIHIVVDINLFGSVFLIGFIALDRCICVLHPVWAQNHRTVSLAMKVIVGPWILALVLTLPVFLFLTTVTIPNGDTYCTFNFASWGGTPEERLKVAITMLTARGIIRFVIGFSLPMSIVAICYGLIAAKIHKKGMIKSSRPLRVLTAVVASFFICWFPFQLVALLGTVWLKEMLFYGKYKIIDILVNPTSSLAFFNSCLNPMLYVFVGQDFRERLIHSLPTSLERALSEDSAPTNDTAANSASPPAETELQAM
Put plainly: FPR2 cyclic adenosine monophosphate (cAMP) assay. It counts as cell-based. Conditions: CHO cells overexpressing human FPR2; forskolin 5 μM; inhibition of cAMP production; HTRF; read-out: hFPR2 cAMP2 EC50. The text has this: (§1) N-formyl peptide receptors (FPRs) are a family of chemo attractant receptors that facilitate leukocyte response during inflammation. FPRs belong to the seven-transmembrane G protein-coupled receptor superfamily and are linked to inhibitory G-proteins (Gi). Three family members (FPR1, FPR2 and FPR3) have been identified in humans and are predominantly found in myeloid cells with varied distribution and have also been reported in multiple organs and tissues. After agonist binding, the FPRs activate a multitude of physiological pathways, such as intra cellular signaling transduction, Ca^2+ mobilization and transcription. The family interacts with a diverse set of ligands that includes proteins, polypeptides and fatty acid metabolites which activate both pro-inflammatory and pro-resolution downstream responses. FPR2 and FPR1 Cyclic Adenosine Monophosphate (cAMP) Assays were used to measure the in vitro activity of the compounds disclosed in this application.
(§2) FPR2 and FPR1 Cyclic Adenosine Monophosphate (cAMP) Assays. A mixture of forskolin (5 μM final for FPR2 or 10 μM final for FPR1) and IBMX (200 μM final) were added to 384-well Proxiplates (Perkin-Elmer) pre-dotted with test compounds in DMSO (1% final) at final concentrations in the range of 0.020 nM to 100 μM. Chinese Hamster Ovary cells (CHO) overexpressing human FPR1 or human FPR2 receptors were cultured in F-12 (Ham's) medium supplemented with 10% qualified FBS, 250 μg/mL zeocin and 300 μg/mL hygromycin (Life Technologies). Reactions were initiated by adding 2,000 human FPR2 cells per well or 4,000 human FPR1 cells per well in Dulbecco's PBS (with calcium and magnesium) (Life Technologies) supplemented with 0.1% BSA (Perkin-Elmer). The reaction mixtures were incubated for 30 min at rt. The level of intracellular cAMP was determined using the HTRF HiRange cAMP assay reagent kit (Cisbio) according to manufacturer's instruction. Solutions of cryptate conjugated anti-cAMP and d2 flurorophore-labeled cAMP were made in a supplied lysis buffer separately. Upon completion of the reaction, the cells were lysed with equal volume of the d2-cAMP solution and anti-cAMP solution. […] The potency and activity of a compound to inhibit cAMP production was then determined by fitting to a 4-parametric logistic equation from a plot of cAMP level versus compound concentrations.
Background: Changes in cAMP serve as a functional read-out for many G protein-coupled receptors.
Consider `COc1cc(F)c(-c2c(NC(=O)c3ccc(OC(F)F)cc3)c(=O)n(-c3ccccc3)n2C)c(F)c1` [Example 1, N-[5-(2,6-difluoro-4-methoxyphenyl)-1-methyl-3-oxo-2-phenyl-2,3-dihydro-1H-pyrazol-4-yl]-4-(difluoromethoxy)benzamide], for which the EC50 was determined as 12 nM.

`COc1cc(F)c(-c2c(NC(=O)c3ccc(OC(F)(F)F)cc3)c(=O)n(-c3cccc(F)c3)n2C)c(F)c1` [Example 2, N-[5-(2,6-difluoro-4-methoxyphenyl)-2-(3-fluorophenyl)-1-methyl-3-oxo-2,3-dihydro-1H-pyrazol-4-yl]-4-(trifluoromethoxy)benzamide]: the EC50 was 5 nM.

Turning to `COc1cc(F)c(-c2c(NC(=O)c3ccc(OC(F)F)cc3)c(=O)n(-c3cc(C(F)F)ccn3)n2C)c(F)c1` [Example 76, N-[5-(2,6-difluoro-4-methoxyphenyl)-2-[4-(difluoromethyl)pyridin-2-yl]-1-methyl-3-oxo-2,3-dihydro-1H-pyrazol-4-yl]-4-(difluoromethoxy)benzamide], the EC50 is 12 nM.

For `COc1cc(CO)nc(-n2c(=O)c(NC(=O)c3ccc(OC(F)F)cc3)c(-c3c(F)cc(OC)cc3F)n2C)c1` [Example 90, N-[5-(2,6-difluoro-4-methoxyphenyl)-2-[6-(hydroxymethyl)-4-methoxypyridin-2-yl]-1-methyl-3-oxo-2,3-dihydro-1H-pyrazol-4-yl]-4-(difluoromethoxy)benzamide], the EC50 came to 8 nM.

Turning to `COc1cc(N2CCCC2)nc(-n2c(=O)c(NC(=O)c3ccc(OC(F)F)cc3)c(-c3c(F)cc(OC)cc3F)n2C)c1` [Example 91, N-(5-(2,6-difluoro-4-methoxyphenyl)-2-(4-methoxy-6-(pyrrolidin-1-yl)pyridin-2-yl)-1-methyl-3-oxo-2,3-dihydro-1H-pyrazol-4-yl)-4-(difluoromethoxy)benzamide], the EC50 worked out at 20 nM.

For `COc1cc(NCCO)nc(-n2c(=O)c(NC(=O)c3ccc(OC(F)F)cc3)c(-c3c(F)cc(OC)cc3F)n2C)c1` [Example 94, N-[5-(2,6-difluoro-4-methoxyphenyl)-2-{6-[(2-hydroxyethyl)amino]-4-methoxypyridin-2-yl}-1-methyl-3-oxo-2,3-dihydro-1H-pyrazol-4-yl]-4-(difluoromethoxy)benzamide], the 50% effective concentration (EC50) worked out at 6 nM.

Take `COc1cc(N2CC[C@@H](O)C2)nc(-n2c(=O)c(NC(=O)c3ccc(OC(F)F)cc3)c(-c3c(F)cc(OC)cc3F)n2C)c1` [Example 95, N-[5-(2,6-difluoro-4-methoxyphenyl)-2-{6-[(3R)-3-hydroxypyrrolidin-1-yl]-4-methoxypyridin-2-yl}-1-methyl-3-oxo-2,3-dihydro-1H-pyrazol-4-yl]-4-(difluoromethoxy)benzamide]: the EC50 is 8 nM.

Take `COc1cc(N2CC(C)(O)C2)nc(-n2c(=O)c(NC(=O)c3ccc(OC(F)F)cc3)c(-c3c(F)cc(OC)cc3F)n2C)c1` [Example 96, N-[5-(2,6-difluoro-4-methoxyphenyl)-2-[6-(3-hydroxy-3-methylazetidin-1-yl)-4-methoxypyridin-2-yl]-1-methyl-3-oxo-2,3-dihydro-1H-pyrazol-4-yl]-4-(difluoromethoxy)benzamide]: the concentration giving a half-maximal response (EC50) amounted to 7 nM.

As to `COc1cc(N2CC[C@H](F)C2)nc(-n2c(=O)c(NC(=O)c3ccc(OC(F)F)cc3)c(-c3c(F)cc(OC)cc3F)n2C)c1` [Example 98, N-[5-(2,6-difluoro-4-methoxyphenyl)-2-{6-[(3S)-3-fluoropyrrolidin-1-yl]-4-methoxypyridin-2-yl}-1-methyl-3-oxo-2,3-dihydro-1H-pyrazol-4-yl]-4-(difluoromethoxy)benzamide], the EC50 amounted to 6 nM.

In the case of `COc1cc(N2CCC(F)(F)C2)nc(-n2c(=O)c(NC(=O)c3ccc(OC(F)F)cc3)c(-c3c(F)cc(OC)cc3F)n2C)c1` [Example 99, N-[5-(2,6-difluoro-4-methoxyphenyl)-2-[6-(3,3-difluoropyrrolidin-1-yl)-4-methoxypyridin-2-yl]-1-methyl-3-oxo-2,3-dihydro-1H-pyrazol-4-yl]-4-(difluoromethoxy)benzamide], the EC50 worked out at 4 nM.

As to `COc1cc(N2CCN(C)CC2)nc(-n2c(=O)c(NC(=O)c3ccc(OC(F)F)cc3)c(-c3c(F)cc(OC)cc3F)n2C)c1` [Example 101, N-[5-(2,6-difluoro-4-methoxyphenyl)-2-[4-methoxy-6-(4-methylpiperazin-1-yl)pyridin-2-yl]-1-methyl-3-oxo-2,3-dihydro-1H-pyrazol-4-yl]-4-(difluoromethoxy)benzamide], the EC50 was found to be 3 nM.

`COc1cc(F)c(-c2c(NC(=O)c3ccc(OC(F)F)cc3)c(=O)n(-c3cccc(N4C[C@@H](C)N(C)[C@@H](C)C4)n3)n2C)c(F)c1` [Example 103, N-[5-(2,6-difluoro-4-methoxyphenyl)-1-methyl-3-oxo-2-{6-[(3R,5S)-3,4,5-trimethylpiperazin-1-yl]pyridin-2-yl}-2,3-dihydro-1H-pyrazol-4-yl]-4-(difluoromethoxy)benzamide]: the EC50 was 1 nM.

Consider `COc1cc(N2C3CCC2CN(C)C3)nc(-n2c(=O)c(NC(=O)c3ccc(OC(F)F)cc3)c(-c3c(F)cc(OC)cc3F)n2C)c1` [Example 105, N-[5-(2,6-difluoro-4-methoxyphenyl)-2-(4-methoxy-6-{3-methyl-3,8-diazabicyclo[3.2.1]octan-8-yl}pyridin-2-yl)-1-methyl-3-oxo-2,3-dihydro-1H-pyrazol-4-yl]-4-(difluoromethoxy)benzamide], for which the EC50 was 1 nM.

In the case of `COc1cc(N2CC(OC(C)C)C2)nc(-n2c(=O)c(NC(=O)c3ccc(OC(F)F)cc3)c(-c3c(F)cc(OC)cc3F)n2C)c1` [Example 106, N-[5-(2,6-difluoro-4-methoxyphenyl)-2-{4-methoxy-6-[3-(propan-2-yloxy)azetidin-1-yl]pyridin-2-yl}-1-methyl-3-oxo-2,3-dihydro-1H-pyrazol-4-yl]-4-(difluoromethoxy)benzamide], the EC50 was found to be 5 nM.

As for `COc1cc(F)c(-c2c(NC(=O)c3ccc(OC(F)F)cc3)c(=O)n(-c3cccc(N4CCN(CCO)CC4)n3)n2C)c(F)c1` [Example 107, N-[5-(2,6-difluoro-4-methoxyphenyl)-2-{6-[4-(2-hydroxyethyl)piperazin-1-yl]pyridin-2-yl}-1-methyl-3-oxo-2,3-dihydro-1H-pyrazol-4-yl]-4-(difluoromethoxy)benzamide], the EC50 worked out at 5 nM.

For the molecule `COc1cc(OC)cc(-n2c(=O)c(NC(=O)c3ccc(OC(F)F)cc3)c(-c3c(F)cc(OC)cc3F)n2C)c1` [Example 108], the 50% effective concentration (EC50) was determined as 3 nM.

Take `COc1cc(C2CCNCC2)nc(-n2c(=O)c(NC(=O)c3ccc(OC(F)F)cc3)c(-c3c(F)cc(OC)cc3F)n2C)c1` [Example 367, N-(5-(2,6-Difluoro-4-methoxyphenyl)-2-(4-methoxy-6-(piperidin-4-yl)pyridin-2-yl)-1-methyl-3-oxo-2,3-dihydro-1H-pyrazol-4-yl)-4-(difluoromethoxy)benzamide]: the EC50 was found to be 1 nM.

Another assay addresses T2, human FPR1 (Homo sapiens, UniProt P21462).
T2 sequence (P21462 1-350): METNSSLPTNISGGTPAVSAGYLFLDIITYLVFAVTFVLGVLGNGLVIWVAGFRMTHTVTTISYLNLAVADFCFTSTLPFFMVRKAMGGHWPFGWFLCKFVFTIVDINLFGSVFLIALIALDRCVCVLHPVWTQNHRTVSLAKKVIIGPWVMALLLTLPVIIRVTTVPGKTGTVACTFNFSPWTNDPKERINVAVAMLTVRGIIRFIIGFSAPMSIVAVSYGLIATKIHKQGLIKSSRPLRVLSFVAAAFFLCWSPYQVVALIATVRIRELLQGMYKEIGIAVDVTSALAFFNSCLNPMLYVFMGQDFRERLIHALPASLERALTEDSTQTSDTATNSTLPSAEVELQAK
Description: FPR1 cyclic adenosine monophosphate (cAMP) assay. It counts as cell-based. Conditions: CHO cells overexpressing human FPR1; forskolin 10 μM; inhibition of cAMP production; HTRF; read-out: hFPR1 cAMP2 EC50.
Text: as §1, §2
Regarding `COc1cc(F)c(-c2c(NC(=O)c3ccc(OC(F)F)cc3)c(=O)n(-c3ccccc3)n2C)c(F)c1` [Example 1, N-[5-(2,6-difluoro-4-methoxyphenyl)-1-methyl-3-oxo-2-phenyl-2,3-dihydro-1H-pyrazol-4-yl]-4-(difluoromethoxy)benzamide], the EC50 came to 2400 nM.

Turning to `COc1cc(F)c(-c2c(NC(=O)c3ccc(OC(F)(F)F)cc3)c(=O)n(-c3cccc(F)c3)n2C)c(F)c1` [Example 2, N-[5-(2,6-difluoro-4-methoxyphenyl)-2-(3-fluorophenyl)-1-methyl-3-oxo-2,3-dihydro-1H-pyrazol-4-yl]-4-(trifluoromethoxy)benzamide], the EC50 was 210 nM.

Consider `COc1cc(F)c(-c2c(NC(=O)c3ccc(OC(F)F)cc3)c(=O)n(-c3cc(OC(C)C)cc(OCCO)n3)n2C)c(F)c1` [Example 378, N-(5-(2,6-Difluoro-4-methoxyphenyl)-2-(6-(2-hydroxyethoxy)-4-isopropoxypyridin-2-yl)-1-methyl-3-oxo-2,3-dihydro-1H-pyrazol-4-yl)-4-(difluoromethoxy)benzamide], for which the EC50 turned out to be 25 nM.
